According to PMC12716163 (Nanoscale, 2024):

Tests used:
PSMA = PSMA (Homo sapiens, UniProt Q04609); details: irreversible inhibitor; cited from earlier work
Aqueous solubility = type: physicochemical
PC3-PIP PSMA (+) cells = experiment: CellTiter-Glo cell viability; type: cell-based, human; details: 72 H, equivalent drug bases
c-Met = c-Met (Homo sapiens, UniProt P08581); experiment: c-Met inhibition IC50; type: biochemical; details: read-out: c-Met inhibitory activity IC50
Sequence of c-Met (P08581 25-1390): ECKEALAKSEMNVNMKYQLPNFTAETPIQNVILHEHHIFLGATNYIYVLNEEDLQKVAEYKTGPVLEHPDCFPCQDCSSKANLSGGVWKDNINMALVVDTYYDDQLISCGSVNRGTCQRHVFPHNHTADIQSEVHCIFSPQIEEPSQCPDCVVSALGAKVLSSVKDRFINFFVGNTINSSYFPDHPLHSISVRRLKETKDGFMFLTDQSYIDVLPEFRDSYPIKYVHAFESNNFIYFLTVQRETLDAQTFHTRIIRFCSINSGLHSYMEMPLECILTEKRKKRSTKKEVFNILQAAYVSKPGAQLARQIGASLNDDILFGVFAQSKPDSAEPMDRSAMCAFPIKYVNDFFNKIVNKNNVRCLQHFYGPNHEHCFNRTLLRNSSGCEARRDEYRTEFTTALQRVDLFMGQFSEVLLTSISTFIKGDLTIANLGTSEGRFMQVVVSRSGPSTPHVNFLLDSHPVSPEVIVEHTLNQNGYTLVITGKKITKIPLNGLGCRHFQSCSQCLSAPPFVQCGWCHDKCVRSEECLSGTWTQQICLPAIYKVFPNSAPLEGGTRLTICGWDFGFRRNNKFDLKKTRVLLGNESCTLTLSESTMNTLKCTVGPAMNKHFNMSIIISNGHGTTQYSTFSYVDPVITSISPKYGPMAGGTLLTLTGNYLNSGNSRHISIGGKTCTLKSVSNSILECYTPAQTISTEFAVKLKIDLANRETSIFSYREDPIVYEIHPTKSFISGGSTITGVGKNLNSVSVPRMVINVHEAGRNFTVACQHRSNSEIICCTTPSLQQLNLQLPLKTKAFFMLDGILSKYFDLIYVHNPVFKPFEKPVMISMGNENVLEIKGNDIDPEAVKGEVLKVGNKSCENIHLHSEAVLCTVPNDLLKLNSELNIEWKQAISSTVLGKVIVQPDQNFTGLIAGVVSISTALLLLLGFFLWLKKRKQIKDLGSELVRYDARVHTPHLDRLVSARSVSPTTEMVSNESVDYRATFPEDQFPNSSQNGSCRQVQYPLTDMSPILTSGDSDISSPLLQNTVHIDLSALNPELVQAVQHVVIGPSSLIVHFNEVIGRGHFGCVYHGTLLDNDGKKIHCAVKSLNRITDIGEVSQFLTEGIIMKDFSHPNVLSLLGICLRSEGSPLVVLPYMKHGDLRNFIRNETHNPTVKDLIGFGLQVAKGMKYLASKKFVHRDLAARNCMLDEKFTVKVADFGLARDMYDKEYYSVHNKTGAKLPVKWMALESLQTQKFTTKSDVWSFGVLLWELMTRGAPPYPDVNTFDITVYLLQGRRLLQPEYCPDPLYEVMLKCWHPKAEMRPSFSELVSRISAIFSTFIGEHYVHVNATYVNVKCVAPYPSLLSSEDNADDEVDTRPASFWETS

Sequence of PSMA (Q04609 whole entry): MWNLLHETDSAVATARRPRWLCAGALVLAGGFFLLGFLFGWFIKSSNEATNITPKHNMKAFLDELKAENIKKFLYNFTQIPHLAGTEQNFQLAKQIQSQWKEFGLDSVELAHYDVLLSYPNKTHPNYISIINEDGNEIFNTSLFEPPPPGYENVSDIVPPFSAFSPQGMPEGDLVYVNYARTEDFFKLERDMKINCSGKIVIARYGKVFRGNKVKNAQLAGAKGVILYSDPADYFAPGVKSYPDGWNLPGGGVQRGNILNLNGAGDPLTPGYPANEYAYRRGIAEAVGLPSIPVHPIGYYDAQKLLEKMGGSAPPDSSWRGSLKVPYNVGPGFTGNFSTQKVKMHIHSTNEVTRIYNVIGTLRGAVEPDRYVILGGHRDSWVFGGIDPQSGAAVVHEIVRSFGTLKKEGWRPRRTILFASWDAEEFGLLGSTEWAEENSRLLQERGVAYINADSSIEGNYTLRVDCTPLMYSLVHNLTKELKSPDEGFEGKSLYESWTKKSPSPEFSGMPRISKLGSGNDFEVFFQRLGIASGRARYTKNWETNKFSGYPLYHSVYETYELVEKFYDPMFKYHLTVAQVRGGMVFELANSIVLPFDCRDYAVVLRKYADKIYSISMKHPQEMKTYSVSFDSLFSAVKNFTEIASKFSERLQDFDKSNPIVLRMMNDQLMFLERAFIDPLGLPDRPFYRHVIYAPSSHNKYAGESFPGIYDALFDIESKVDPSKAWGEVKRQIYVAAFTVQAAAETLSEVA

Row | aqueous solubility (Aqueous solubility) | anti-proliferative IC50 (PC3-PIP PSMA (+) cells) [µg/mL] | IC50 (c-Met) [nM] | SMILES | PSMA affinity (PSMA)
1 | – | – | – | O=C(O)CC[C@H](NP(=O)(O)OCCC[C@H](NC(=O)CC[C@H](NC(=O)CCCCCNC(=O)c1ccc(F)cc1)C(=O)O)C(=O)O)C(=O)O [CTT 1057] | nanomolar affinity
2 | poor aqueous solubility | – | – | COc1cc2nccc(Oc3ccc(NC(=O)C4(C(=O)Nc5ccc(F)cc5)CC4)cc3)c2cc1OC [Cabo, cabozantinib, reference compound] | –
3 | poor aqueous solubility | 77.30 ± 4.35 | 26.3 | COc1cc2c(Oc3ccc(NC(=O)C4(C(=O)Nc5ccc(F)cc5)CC4)cc3)ccnc2cc1O [Cabo-OH] | –
